# Oligonucleotides are written 5' to 3', each unit as a sugar letter and its base; * is a phosphorothioate linkage, no mark a phosphodiester; rarer units and linkages stand in square brackets, end groups in braces. Plain capitals give the bases only. r = 2'-OH (RNA); f = 2'-fluoro
# T1: chymase purified from human skin mast cell (native, Calbiochem) (Homo sapiens, UniProt P23946)
# T1 construct: Here, the native is chymase purified from human skin mast cell; purchased Calbiochem; host or cells: human skin mast cell (tissue-derived)
# T1 sequence (P23946 22-247): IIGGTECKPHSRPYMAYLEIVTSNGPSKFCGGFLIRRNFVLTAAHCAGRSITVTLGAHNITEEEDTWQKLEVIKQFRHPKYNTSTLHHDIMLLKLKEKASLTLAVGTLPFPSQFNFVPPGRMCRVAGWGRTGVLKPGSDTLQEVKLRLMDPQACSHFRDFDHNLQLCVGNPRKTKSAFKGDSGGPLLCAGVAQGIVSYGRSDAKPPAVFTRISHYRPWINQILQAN
# T2: chymase (recombinant, manufactured by SIGMA) (Homo sapiens, UniProt P23946)
# T2 construct: purchased SIGMA
# T2 sequence (P23946 22-247): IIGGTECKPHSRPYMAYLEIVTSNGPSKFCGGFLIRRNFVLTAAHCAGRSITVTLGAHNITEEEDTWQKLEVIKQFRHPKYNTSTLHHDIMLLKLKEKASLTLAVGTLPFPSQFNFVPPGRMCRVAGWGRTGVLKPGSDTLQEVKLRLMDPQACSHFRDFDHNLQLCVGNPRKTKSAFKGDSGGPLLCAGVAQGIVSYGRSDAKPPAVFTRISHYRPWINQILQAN
# B1: 9 (nucleic acid)
# chain: rGrGrGrArAfCrGrArArGfCrGrAfCrArGrAfCrGfUfUfCfCrArGfCrGfUfCfUrArAfUrAfCrGfUrGrArAfUrArAfCfCfUrGrAfUfCrGfUrArGrGrGrGrGfUfUfCrArArGfUrAfCfUrGrArGrGrAfCrArGrA
# B2: 10 (nucleic acid)
# chain: rGrGrGrArAfCrGrArArGfCrGrAfCrArGrAfCfCrGrArAfUfCrArGrArArGfUfUfCrArAfCrAfUrGrGrAfCrAfUrArAfCrAfUfCrGrAfUrGrGrGrGfUrGfUfCrArArGfUrAfCfUrGrAfCrGrAfCrArGrA
# Biological target: T1, chymase purified from human skin mast cell (native, Calbiochem)
# Experiment: chymase enzyme activity inhibition, native substrate angiotensin I (His-Leu fluorescence)
# Type: biochemical
# Settings: Table 2; substrate angiotensin I 50 μM, chymase 0.5 nM, 37° C. 90 min; mean of 2 or 3 measurements
# Description: A second method of evaluation employs a native substrate. A useful native substrate for chymase is angiotensin I. Here, His-Leu, a peptide fragment released upon degradation of angiotensin I, is fluorescently derivatized, and the fluorescence intensity therefrom is quantified.
# In the assay, an enzyme reaction is carried out in 50 μL of solution C. First, 0.3-0.75 ng of chymase (recombinant, manufactured by SIGMA; or native, manufactured by Calbiochem) is diluted in solution C to obtain 5 μL chymase solution. Each nucleic acid is prepared in solution C to obtain 25 μL solutions. 5 μL of each chymase dilution and 25 μL of each nucleic acid solution are mixed, and then the mixture is incubated at 37° C. for 5 minutes. Separately, 20 μL of 125 μM angiotensin I (manufactured by Peptide Institute, Inc.) is prepared in solution C and incubated at 37° C. for 5 minutes. The angiotensin I solution is added to the mixture of chymase and nucleic acid, and the enzyme reaction is initiated. After the reaction was allowed to proceed at 37° C. for 90 minutes, 25 μL of ice-cooled 30% trichloroacetic acid solution is added to terminate the reaction. The entire mixture is centrifuged at 4° C., 14000 rpm for 10 minutes, and 30 μL of the resulting supernatant is used for the subsequent reaction for fluorescent derivatization.
# After 30 μL of the supernatant is added to a 96-well plate (Black, manufactured by Costar), 15 μL of 2% o-phthalaldehyde (manufactured by SIGMA) solution in methanol and 170 μL of 0.3M NaOH solution are mixed in each well, and the plate is allowed to stand at room temperature for 10 minutes. Subsequently, 25 μL of 3M HCl solution is added to terminate the reaction. The plate is set to the microplate reader SpectraMax190 (manufactured by Molecular Devices Corporation), and the fluorescence intensity is determined at an excitation wavelength of 355 nm and a fluorescence wavelength of 460 nm.
# For control, samples are treated and analyzed in the same manner in two cases: use of SEQ ID NO: 58 (negative control) and use of chymostatin, a known chymotrypsin-like serine protease inhibitor (positive control). In both cases, fluorescence intensity obtained at 0 minute reaction time serves as a blank determination. Taking the fluorescence intensity detected with the addition of an equal volume of solution C, in place of each nucleic acid, in the chymase enzyme reaction as 100%, the inhibitory rate for each test substance is calculated, and the inhibitor concentration required to cause a 50% inhibition of the enzyme activity (IC50) is determined.
# Whether the nucleic acids shown by SEQ ID NO: 9 and 10 inhibit the enzyme activity of chymase was determined by the following method. Angiotensin I is converted by chymase to angiotensin II, during which a peptide fragment His-Leu is released. Since the peptide His-Leu is fluorescently derivatized by o-phthalaldehyde, its fluorescence intensity can be quantitatively measured.
# The total volume of solution for an enzyme reaction in the assay was set to 50 μL, and the reaction was performed in solution C buffer. At first, native (manufactured by Calbiochem) was diluted with solution C to give 5 μL thereof. Here, the native is chymase purified from human skin mast cell. The nucleic acid was serially diluted with solution C at a concentration of 0.0027-2 μM to give 25 μL thereof. The chymase solution (5 μL) and the nucleic acid solution (25 μL) were mixed, and the mixture was incubated at 37° C. for 5 min. On the other hand, […] angiotensin I (manufactured by PEPTIDE INSTITUTE, INC.) was prepared in solution C to give 20 μL thereof, which was incubated at 37° C. for 5 min. The angiotensin I solution was added to a mixture of chymase and nucleic acid to start an enzyme reaction. The final chymase concentration of the reaction solution was 0.5 nM, and the final substrate concentration was 50 μM. […]
row,Molecule,IC50
1,B1,0.22 nM
2,B2,0.43 nM

# Same assay, conditions: Table 3; angiotensin I as substrate; mean of 2 or 3 measurements; >1 = no inhibitory activity up to 1 μM
row,Molecule,IC50
1,"13 (GGACAUAACAUUGUUGGGGUGUCAAGG; 2'-fluoro at CU, RNA at AG, backbone not given here) [compound 13]",> 1000 nM

# Same assay, conditions: Table 4; angiotensin I as substrate; mean of 2 or 3 measurements
row,Molecule,IC50
1,"17(22) (GAUGAUCGGACAUAACAUUGUUGGGGUGUCAA; aptamer; 2'-O-methyl, idT end and other modifications, positions not given here)",0.17 nM
2,"17(4) (GAUGAUCGGACAUAACAUUGUUGGGGUGUCAA; aptamer; 2'-O-methyl, idT end and other modifications, positions not given here)",0.2 nM
3,"17(15) (GAUGAUCGGACAUAACAUUGUUGGGGUGUCAA; aptamer; 2'-O-methyl, idT end and other modifications, positions not given here)",0.13 nM
4,"17(11) (GAUGAUCGGACAUAACAUUGUUGGGGUGUCAA; aptamer; 2'-O-methyl, idT end and other modifications, positions not given here)",0.14 nM
5,"17(7) (GAUGAUCGGACAUAACAUUGUUGGGGUGUCAA; aptamer; 2'-O-methyl, idT end and other modifications, positions not given here)",0.17 nM
6,"17(24) (GAUGAUCGGACAUAACAUUGUUGGGGUGUCAA; aptamer; 2'-O-methyl, idT end and other modifications, positions not given here)",0.19 nM
7,"17(18) (GAUGAUCGGACAUAACAUUGUUGGGGUGUCAA; aptamer; 2'-O-methyl, idT end and other modifications, positions not given here)",0.15 nM
8,"17(20) (GAUGAUCGGACAUAACAUUGUUGGGGUGUCAA; aptamer; 2'-O-methyl, idT end and other modifications, positions not given here)",0.18 nM

# Same assay, conditions: Table 6; angiotensin I as substrate; mean of 2 or 3 measurements
row,Molecule,IC50
1,"33(17) (AUGAUCGGACAUAACUAAUUAGGGGUGUCAA; aptamer; modified variant with 2'-O-methyl and end modifications, pattern not given here)",0.038 nM
2,"33(5) (AUGAUCGGACAUAACUAAUUAGGGGUGUCAA; aptamer; modified variant with 2'-O-methyl and end modifications, pattern not given here)",0.076 nM
3,"33(2) (AUGAUCGGACAUAACUAAUUAGGGGUGUCAA; aptamer; modified variant with 2'-O-methyl and end modifications, pattern not given here)",0.078 nM
4,"33(12) (AUGAUCGGACAUAACUAAUUAGGGGUGUCAA; modification pattern variant (12), chemistry not fully specified)",0.048 nM
5,"33 (AUGAUCGGACAUAACUAAUUAGGGGUGUCAA; aptamer; listed as RNA, chemistry not fully specified) [compound 33]",0.21 nM
6,"33(8) (AUGAUCGGACAUAACUAAUUAGGGGUGUCAA; aptamer; modified variant with 2'-O-methyl and end modifications, pattern not given here)",0.061 nM

# Biological target: T2, chymase (recombinant, manufactured by SIGMA)
# Experiment: chymase enzyme activity inhibition, synthetic substrate Suc-Ala-Ala-Pro-Phe-MCA
# Type: biochemical
# Settings: Table 5; MCA substrate, amount of chymase 0.005 μg instead of 0.05 μg; one measurement
# Description: A first method employs a synthetic substrate. A useful chymase substrate is Suc-Ala-Ala-Pro-Phe-MCA (4-methylcoumaryl-7-amide group) (manufactured by Peptide Institute, Inc.), which contains the 4-amino acid peptide “Ala-Ala-Pro-Phe” (SEQ ID NO: 41), a standard substrate for chymotrypsin-like proteases.
# The assay is performed using a 96-well plate (F16 Black Maxisorp Fluoronunc, manufactured by Nunc), with a reaction mixture volume of 100 μL, in a buffer solution (solution C; see Example 2 below). First, each nucleic acid is prepared in solution C to obtain 50 μL solutions. After 10 μL of the 1 mM substrate prepared in solution C is added, the plate is set to the microplate reader SpectraMax190 (manufactured by Molecular Devices Corporation), and incubated at 37° C. for 5 minutes. Separately, 0.05 μg of chymase (recombinant, manufactured by SIGMA) is diluted in solution C, and 40 μL of this dilution is incubated at 37° C. for 5 minutes. The chymase solution is added to the mixture of the nucleic acid and substrate to initiate an enzyme reaction. The plate containing the reaction mixture is set to the microplate reader SpectraMax190 (manufactured by Molecular Devices Corporation), and examined for time-dependent changes in the fluorescence intensity at 37° C. for 5 minutes (excitation wavelength 380 nm, detection wavelength 460 nm). A linear approximation of the increase in the fluorescence of the AMC (7-amino-4-methylcoumarine) released from the substrate by chymase activity is generated, and its slope is taken as the initial reaction velocity. For control, samples are treated and analyzed in the same manner in two cases: use of a nucleic acid pool containing a random sequence of 30 or 40 nucleotides (negative control), and use of chymostatin, a known chymotrypsin-like serine protease inhibitor (positive control). Taking the initial reaction velocity without the nucleic acid and inhibitor as a 100% enzyme activity, the inhibitory rate for each test substance is calculated, and the inhibitor concentration required to cause a 50% inhibition of the enzyme activity (IC50) is determined.
# Whether the nucleic acids shown by SEQ ID NO: 1-8 inhibit the enzyme activity of chymase was determined as described below. The chymase substrate used was Suc-Ala-Ala-Pro-Phe-MCA (manufactured by Peptide Institute, Inc.), which contains the 4-amino-acid peptide Ala-Ala-Pro-Phe, a standard substrate for chymotrypsin-like proteases. Here, Suc is a protecting succinyl group, and MCA is a 4-methylcoumaryl-7-amide group; upon cleavage of the C-terminal side of phenylalanine, AMC (7-amino-4-methylcoumarine) is released. By detecting the fluorescence of this AMC, the enzyme activity of chymase can be determined. The assay was performed using a 96-well plate (F16 Black Maxisorp Fluoronunc, manufactured by Nunc), with a reaction mixture volume of 100 μL, in solution C as a buffer solution. Here, the solution C is a mixed solution of 145 mM sodium chloride, 5.4 mM potassium chloride, 1.8 mM calcium chloride, 0.8 mM magnesium chloride, 20 mM Tris (pH 7.6), and 0.05% Tween20. First, nucleic acid was serially diluted in solution C to obtain 50 μL solutions. After 10 μL of the 1 mM substrate prepared in solution C was added thereto, the plate was set to the microplate reader SpectraMax190 (manufactured by Molecular Devices Corporation), and incubated at 37° C. for 5 minutes. […] The chymase solution was added to the mixture of the nucleic acid and substrate to initiate an enzyme reaction. The final chymase concentration in the reaction mixture was 16.7 nM, the final substrate concentration being 100 μM. The plate containing the reaction mixture was set to the microplate reader SpectraMax190 (manufactured by Molecular Devices Corporation), and examined for time-dependent changes in the fluorescence intensity at 37° C. for 5 minutes (or 30 minutes) (excitation wavelength 380 nm, detection wavelength 460 nm). […]
row,Molecule,IC50
1,"23 (GGCAGAUGAUCGGACAUAACAGUAGAUAGAGUUAAAACUGGGGUGUCAA; 2'-fluoro at CU, RNA at AG, backbone not given here) [compound 23]",7.8 nM
2,"22 (GGCAGAUGAUCGGACAUAACAGUUAGAUAGAGUUAAAAACUGGGGUGUCAA; 2'-fluoro at CU, RNA at AG, backbone not given here) [compound 22]",5 nM

# Reference: US11639503B2, “Anti-chymase aptamer and use for same” (RIBOMIC INC., priority 2017, dated 2023)
